Change in vivo and IC50 data for 5 molecules are collected here from patent publication US4812462A, “4,5,6,7-tetrahydro-1H-imidazo[4,5-c]pyridine-6-carboxylic acid analogs having antihypertensive activity” (Warner-Lambert Company, priority 1986, dated 1989).

In assay [1] the test system is 2 kidney, 1-clip Goldblatt hypertensive rat (RHR). In words: blood pressure lowering in conscious 2 kidney, 1-clip Goldblatt (renal) hypertensive rats (RHR), AHP3. The assay is classed as in vivo. As to conditions: 30 mg/kg ip, read-out: Max % decrease in blood pressure, 30 mg/kg ip in RHR. The procedure: Thus, for example, compounds of formula I when administered intraperitoneally or orally to 2 kidney, 1-clip Goldblatt (renal) hypertensive rats (See S Sen, et al., "Role of Renin-Angiotensin System in Chronic Renal Hypertensive Rats," Hypertension 1:427-434 (1979) and Clin. Soc. 57:53-62, 1979, "Antihypertensive Effect of Prolonged Blockade of Angiotensin Formation in Benign and Malignant, one-and two-kidney Goldblatt Hypertensive Rats".) at doses in the range of 1-100 mg/kg cause 10-80 mmHg drops in blood pressure. […] Angiotensin binding inhibition activity and blood pressure lowering activity in renal hypertensive rats of the optimally substituted examples of formula I are listed in Table 1. Blood pressure lowering activity in spontaneously hypertensive rats of optimally substituted examples of formula II are listed in Table 2.
[…] EVALUATION (AHP3)
A Method for the Direct Monitoring of Aortic Blood Pressure and Heart Rate from Conscious Rats
The continuous monitoring of pulsatile blood pressure (BP) from unrestrained conscious rats surgically equipped with polyethylene cannulas was accomplished by means of a computer assisted data capture scheme (CADCS). The basic elements of the methodology are the cannulation procedure and the CADCS.
Rats were anesthetized with Telazol (1:1 tiletamine HCl and zolazepam HCl); 20-40 mg/kg IM and the descending aorta exposed via a midline incision. Cannulas fabricated from polyethylene tubing were inserted into the aorta via an undersized puncture hole below the renal arteries. The puncture hole was made by a 23 G disposable needle with a section of the aorta clamped off above and below the puncture site. The cannulas, consisting of a PE100 (0.86 mm ID) body and a PE50 (0.58 mm ID) tip, were attached to a trocar, inserted through the psoas muscle, and passed subcutaneously along the midline of the back and externalized between the ears. The cannulas were anchored to the psoas muscle and between the scalulae (3-0 green braided suture). The midline incision was closed in two steps (muscle first, skin second) using continuous over-and-over sutures (4-0 chronic). Each rat was then given penicillin 30,000 units subcutaneously (Penicillin G Procaine Sterile Suspension).
The rats were fitted with a harness-springswivel assembly designed to protect the cannula and to provide the rat relative freedom of movement. The harnesses were fabricated from nylon hook and loop tape cemented to a metal plate to which spring wires (18-8 stainless steel), were attached to brass swivels. Each polyethylene cannula was channeled through a spring and connected through a swivel to a pressure transducer (Model P23Gb; Statham Instruments; Hato Rey, Puerto Rico) and an infusion pump (Sage model 234-7; Orion Research, Cambridge, Mass.) by means of PE100 tubing. While on test, each rat received a continuous slow infusion of heparinized saline solution (approximately 0.40 ml or 40 units of heparin per 24 hr period) to prevent clot formation. Additional "flushes" of the cannula with heparinized saline were carried out when the aortic pulse pressure (systolic minus diastolic) was less than 25 mm Hg.
The pulsatile blood pressure of each of 32 rats was monitored continuously by two signal conditioning units (Gould, Clev., Ohio). The signals from these units were monitored and digital data for mean, systolic, and diastolic blood pressures as well as for heart rate were calculated every 5 min by two in-laboratory computers (Hewlett Packard, Cupertino, Calif.). These in-laboratory computers have the capacity to store 32 days of this 5 min data. Communication with the mainframe research computer (IBM 3083) from the two inlaboratory computers allowed for data analysis and report generation. […]

Assay [2] has as its target angiotensin II binding to rat adrenal receptor preparations. As to the kind of experiment: inhibition of 125I-angiotensin II binding to rat adrenal receptor preparations.

Regarding `O=C(O)[C@@H]1Cc2c(ncn2Cc2ccccc2)CN1C(=O)C(c1ccc(F)cc1)c1ccc(F)cc1` [Example 23, (S)-5-[bis(4-fluorophenyl)acetyl]-4,5,6,7-tetrahydro-1-(phenylmethyl)-1H-imidazo[4,5-c]pyridine-6-carboxylic acid], the change in vivo at 30 mg/kg in assay [1] is -22%. Also, in assay [2], the 50% inhibitory concentration (IC50) came out at 2.1 µM.
For `COc1ccc(Cn2cnc3c2C[C@@H](C(=O)O)N(C(=O)C(c2ccccc2)C2CCCC2)C3)cc1C` (stereo partly drawn) [Example 24, (S)-5-(cyclopentylphenylacetyl)-4,5,6,7-tetrahydro-1-[(4-methoxy-3-methylphenyl)methyl]-1H-imidazo-[4,5-c]pyridine-6-carboxylic acid] the same measures were -16% and 0.07 µM.
For `COc1ccc(Cn2cnc3c2C[C@@H](C(=O)O)N(C(=O)CC2CCCCC2)C3)cc1C` [Example 26, (S)-5-(cyclohexylacetyl)-4,5,6,7-tetrahydro-1-[(4-methoxy-3-methylphenyl)methyl]-1H-imidazo-[4,5-c]-pyridine-6-carboxylic acid] the same measures were -18% and 2 µM.
For `Cc1cccc(Cn2cnc3c2C[C@@H](C(=O)O)N(C(=O)C(c2ccccc2)c2ccccc2)C3)c1` [Example 75, 1H-Imidazo[4,5-c]pyridine-6-carboxylic acid, 5-(diphenylacetyl)-4,5,6,7-tetrahydro-1-[(3-methylphenyl)methyl]-, (S)-] the same measures were -30% and 0.27 µM.
`O=C(O)C1Cc2c(ncn2Cc2ccccc2)CN1C(=O)C(c1ccccc1)c1ccccc1` (stereo not shown) [Example 169, 5-(Diphenylacetyl)-4,5,6,7-tetrahydro-1-(phenylmethyl)-1H-imidazo[4,5-c]pyridine-6-carboxylic acid]: the change in vivo at 30 mg/kg in assay [1] is -20%. In assay [2], this molecule yielded a half-inhibitory concentration (IC50) of 1 µM.
